Read-outs that look alike come from different tables or passages of the source.
Legend:
[1] = 2 months under air at room temperature
[2] = Storage of morphine sulfate in moisturizing chamber (moist room temperature air), ABUK/water/ethanol analysis; assay type: physicochemical; conditions: after several days in moisturizing chamber

Row | SMILES | methanol content after storage [1] | water content after storage [1] | ABUK level after storage ([1]; morphine base had 5 ppm ABUK at start) | ABUK level after storage ([2]; constant flow of moist room temperature air, 17 ppm ABUK before) | ethanol content after storage ([2]; 0.95% before (gas chromatography)) | water content after storage ([2]; 5.25% before (Karl Fischer))
1 | CN1CC[C@]23c4c5ccc(O)c4O[C@H]2[C@@H](O)C=C[C@H]3[C@H]1C5 [morphine base, morphine] | 0.08 % by weight | 5.70 % by weight | 117 ppm |  |  | 
2 | CN1CC[C@]23c4c5ccc(O)c4O[C@H]2[C@@H](O)C=C[C@H]3[C@H]1C5.O=S(=O)(O)O [morphine sulfate] |  |  |  | 123 ppm | 0.11% | 9.8%
